Measurements from article PMC9611521, “Optimization of Resveratrol Used as a Scaffold to Design Histone Deacetylase (HDAC-1 and HDAC-2) Inhibitors” (Pharmaceuticals, 2022).

Experiments:
HDAC-2 = HDAC-2 (Homo sapiens, UniProt Q92769); assay: Enzymatic HDAC inhibition assay (fluorescence), HDAC-2; assay type: biochemical; conditions: compound at 10 µM
Method: (§1) Enzymatic assays to evaluate HDAC inhibition were performed, and the design involved three steps: (a) Preliminary screening to identify the most promising compounds; (b) Evaluation by a panel of HDAC isoforms to investigate selectivity; and (c) Determination of IC50 values. Firstly, compounds (4–7; 15–26) were evaluated at 10 µM against HDAC-1 and HDAC-2 (Table 2).
(§2) The enzymatic assay to evaluate HDAC inhibitory effects for all final compounds against the distinct isoforms was carried out in accordance with the previously described procedures (Lopes et al., 2021). All compounds were initially screened at 10 µM against HDAC-1 and HDAC-2. […] All the compounds were dissolved in DMSO. A serial dilution of the compounds was performed in 100% DMSO with the highest concentration at 1 mM. Each intermediate compound dilution (in 100% DMSO) was diluted 10x in assay buffer to form a 10% DMSO intermediate dilution in HDAC assay buffer. 5 µL of this dilution was added to a 50 µL reaction to bring the final concentration of DMSO to 1% in all the reactions. Three independent experiments were carried out in triplicate for all experiments. The fluorescence intensity was measured at an excitation of 360 nm and emission of 460 nm using a Tecan Infinite M1000 microplate reader, and the percentage of activity was calculated using the formula: % activity = (F − Fb)/(Ft − Fb), where F = the intensity of fluorescence in the presence of the compound. In the absence of the test compound, the fluorescent intensity (Ft) in each dataset was defined as 100% activity, while in the absence of HDAC, the fluorescent intensity (Fb) in each dataset was set to 0% activity.

HDAC-1 = HDAC-1 (Homo sapiens, UniProt Q13547); assay: Enzymatic HDAC inhibition assay (fluorescence), HDAC-1; assay type: biochemical; conditions: compound at 10 µM
Method: as §1, §2

HDAC isoforms = tested on: HDAC isoforms; parameters: method as in PMID 24023672; conditions: RVT 100 µM, nuclear extract of HeLa cells; cited from earlier work
SIRT1 = tested on: SIRT1; parameters: method as in PMID 30526767; conditions: dose-dependent experiments; cited from earlier work

HDAC-1, sequence (Q13547 whole entry): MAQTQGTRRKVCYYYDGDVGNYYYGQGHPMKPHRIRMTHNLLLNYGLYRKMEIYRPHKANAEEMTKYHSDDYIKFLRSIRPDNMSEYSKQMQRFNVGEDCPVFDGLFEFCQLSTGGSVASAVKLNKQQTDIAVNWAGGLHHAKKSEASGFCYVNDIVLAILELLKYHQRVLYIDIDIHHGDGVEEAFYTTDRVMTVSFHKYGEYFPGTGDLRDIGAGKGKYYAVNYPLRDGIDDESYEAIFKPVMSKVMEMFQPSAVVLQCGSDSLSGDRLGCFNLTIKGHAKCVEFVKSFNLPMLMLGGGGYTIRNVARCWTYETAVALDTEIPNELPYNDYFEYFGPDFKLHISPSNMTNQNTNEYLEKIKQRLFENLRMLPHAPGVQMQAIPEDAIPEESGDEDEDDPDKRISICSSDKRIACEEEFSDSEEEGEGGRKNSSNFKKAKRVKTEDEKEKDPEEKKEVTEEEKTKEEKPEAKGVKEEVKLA
HDAC-2, sequence (Q92769 whole entry, canonical isoform): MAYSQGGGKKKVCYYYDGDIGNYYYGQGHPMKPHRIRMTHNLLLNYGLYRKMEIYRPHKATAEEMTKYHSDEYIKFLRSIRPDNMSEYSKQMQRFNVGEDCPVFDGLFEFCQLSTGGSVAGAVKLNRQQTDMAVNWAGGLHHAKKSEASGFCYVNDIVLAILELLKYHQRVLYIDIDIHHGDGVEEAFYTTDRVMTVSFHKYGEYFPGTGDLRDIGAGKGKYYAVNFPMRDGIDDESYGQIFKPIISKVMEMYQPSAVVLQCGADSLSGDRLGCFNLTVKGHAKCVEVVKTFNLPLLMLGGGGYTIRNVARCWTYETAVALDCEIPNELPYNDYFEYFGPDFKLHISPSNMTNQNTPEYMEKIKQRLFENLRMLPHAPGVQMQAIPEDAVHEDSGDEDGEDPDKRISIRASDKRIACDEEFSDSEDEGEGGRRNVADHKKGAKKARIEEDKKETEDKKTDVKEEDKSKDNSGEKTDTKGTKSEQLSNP

## O=C(O)c1ccc(/C=C/c2ccccc2)cc1 [(6)]
HDAC-2
  inhibition at 10 µM: 0%
HDAC-1
  inhibition at 10 µM: 9 ± 1%

## Nc1ccc(/C=C/c2ccc(C(=O)Nc3ccccc3N)cc2)cc1 [Compound (4)]
HDAC-2
  inhibition at 10 µM: 28 ± 1%
HDAC-1
  inhibition at 10 µM: 45 ± 1.2%

## Nc1ccccc1NC(=O)c1ccc(/C=C/c2ccccc2)cc1 [Compound (7)]
HDAC-2
  inhibition at 10 µM: 32 ± 0.7%
HDAC-1
  inhibition at 10 µM: 42 ± 0.7%
other
  melting point: 177 to 179 °C

## O=C(O)c1ccc(COc2ccccc2)cc1 [Compound (15)]
HDAC-2
  inhibition at 10 µM: 11%
HDAC-2; 10 µM
  HDAC-2 inhibition: 10 ± 0.5%
HDAC-1
  inhibition at 10 µM: 16 ± 0.6%

## O=C(O)c1ccc(COc2ccc(O)cc2)cc1 [Compound (17)]
HDAC-2
  inhibition at 10 µM: 11 ± 0.5%
HDAC-1
  inhibition at 10 µM: 12 ± 0.7%

## NC(=O)c1ccccc1OCc1ccc(C(=O)O)cc1 [Compound (19)]
HDAC-2
  inhibition at 10 µM: 8 ± 0.6%
HDAC-1
  inhibition at 10 µM: 13 ± 0.9%
other
  melting point: 196.5 to 198.6 °C

## Nc1ccccc1NC(=O)c1ccc(COc2ccccc2)cc1 [Compound (20)]
HDAC-2
  inhibition at 10 µM: 85 ± 1.1%
HDAC-1
  inhibition at 10 µM: 87 ± 1.1%

## Nc1ccccc1NC(=O)c1ccc(CNc2ccccc2)cc1 [Compound (21)]
HDAC-2
  inhibition at 10 µM: 93 ± 1.2%
HDAC-1
  inhibition at 10 µM: 96 ± 1.3%

## Nc1ccccc1NC(=O)c1ccc(COc2ccc(O)cc2)cc1 [Compound (22)]
HDAC-2
  inhibition at 10 µM: 92 ± 0.7%
HDAC-1
  inhibition at 10 µM: 96 ± 1.2%

## Nc1ccc(OCc2ccc(C(=O)Nc3ccccc3N)cc2)cc1 [Compound (23)]
HDAC-2
  inhibition at 10 µM: 52 ± 0.8%
HDAC-1
  inhibition at 10 µM: 72 ± 1.1%

## NC(=O)c1ccccc1OCc1ccc(C(=O)Nc2ccccc2N)cc1 [Compound (24)]
HDAC-2
  inhibition at 10 µM: 81 ± 1.1%
HDAC-1
  inhibition at 10 µM: 86 ± 1%
other
  melting point: 162 to 163.7 °C

## Nc1ccccc1NC(=O)c1ccc(COc2ccc(N3C(=O)c4ccccc4C3=O)cc2)cc1 [Compound (25)]
HDAC-2
  inhibition at 10 µM: 21 ± 0.8%
HDAC-1
  inhibition at 10 µM: 14 ± 0.5%

## Nc1ccccc1NC(=O)c1ccc(COc2ccc(N3C(=O)c4cccc([N+](=O)[O-])c4C3=O)cc2)cc1 [Compound (26)]
HDAC-2
  inhibition at 10 µM: 6 ± 0.6%
HDAC-1
  inhibition at 10 µM: 1 ± 0.5%

## Oc1ccc(/C=C/c2cc(O)cc(O)c2)cc1 [Resveratrol (RVT), trans-3,5,4′-trihydroxystilbene]
HDAC isoforms
  inhibition of HDAC-1 and HDAC-10: 40%
  inhibition of HDAC-4 and HDAC-9: 50%
SIRT1
  deacetylation rate of SIRT1: increased
